Source: the supplement of paper PMC8443649

Test system: PATU8988T-SmBKRAS-LgBCRAF
Assay: KRAS:CRAF interaction luminescence (EndoBind) relative to DMSO control (fold of DMSO); higher = more KRAS-CRAF complex
Description: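 EndoBind assay: PATU8988T cells with CRISPR knock-in SmB-KRAS(G12V) and LgB-CRAF, seeded with RealTime-Glo pro-substrate (1:2000) in 384-well plates. Cells were treated with RAF inhibitors (GDC0879, LY3009120, NVP-LHS533) or the MEK inhibitor Selumetinib, and the same plate was read for split-NanoLuc luminescence at several time points. Signal is normalised to the DMSO-treated wells at each time point; n=3 wells.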

OCCn1cc(-c2ccc3c(c2)CC/C3=N\O)c(-c2ccncc2)n1 [GDC0879]
KRAS:CRAF interaction luminescence
Details | time after treatment 0 h | time after treatment 1 h | time after treatment 4 h | time after treatment 6 h | time after treatment 9 h | time after treatment 12 h
0.00375 µM | 0.967 | 0.989 | 0.964 | 0.967 | 0.958 | 0.9832
0.0075 µM | 1.03 | 1.03 | 0.976 | 0.964 | 0.958 | 0.982
0.015 µM | 0.987 | 1.03 | 0.985 | 0.966 | 0.953 | 0.969
0.03 µM | 0.989 | 1.1 | 1.03 | 1.03 | 1.01 | 1.01
0.06 µM | 0.977 | 1.22 | 1.1 | 1.09 | 1.07 | 1.08
0.12 µM | 0.964 | 1.27 | 1.19 | 1.18 | 1.14 | 1.16
0.24 µM | 0.983 | 1.4 | 1.4 | 1.38 | 1.36 | 1.36
0.46875 µM | 1.01 | 1.5 | 1.62 | 1.61 | 1.58 | 1.59
0.9375 µM | 1.01 | 1.53 | 1.75 | 1.81 | 1.74 | 1.78
1.875 µM | 1.03 | 1.56 | 1.83 | 1.92 | 1.87 | 1.86
3.75 µM | 1.03 | 1.54 | 1.85 | 1.93 | 1.9 | 1.99
7.5 µM | 1.05 | 1.54 | 1.87 | 1.98 | 1.95 | 2.05
15 µM | 1.02 | 1.46 | 1.8 | 1.99 | 2.03 | 2.15
30 µM | – | – | 1.66 | – | – | –
